{"source": "patent US20120107239A1", "about": "“Precursor of Molecular Probe for Pancreatic Islet Imaging and Use of the Same” (priority 2009, published 2012)", "key": {"pancreatic islets": {"test_system": "pancreatic islets", "assay": "Three-dimensional imaging (PET) of a mouse", "type": "in vivo", "details": "104 μCi intravenously, ddy mouse, image 10 minutes after administration, FIG. 3", "procedure": "The molecular probe (compound (6)) was used to perform three-dimensional imaging of a mouse. The molecular probe (104 μCi) was administered intravenously to a 6-week-old ddy mouse (which was male and weighted 25 g) under anesthesia. Then, the three-dimensional imaging was performed with the following PET apparatus and conditions.\nImaging apparatus: eXplore Vista (product name, manufactured by General Electric Company)\nImaging method: Static Scan\nReconstruction: 2DOSEM (Dynamic OS-EM)\nThe image in FIG. 3 was taken 10 minutes after the administration of the molecular probe (integrating time: 10 minutes). In FIG. 3, the portion indicated by the white circle is near the pancreas."}, "SU receptor": {"target": "T1, SU receptor (Mus musculus, UniProt B2RUS7)", "T1 construct": "the pancreatic islets isolated from the mice were dispersed into single cells; from tissue; host or cells: single cells dispersed from isolated mouse pancreatic islets", "T1 sequence (B2RUS7 1-1588)": "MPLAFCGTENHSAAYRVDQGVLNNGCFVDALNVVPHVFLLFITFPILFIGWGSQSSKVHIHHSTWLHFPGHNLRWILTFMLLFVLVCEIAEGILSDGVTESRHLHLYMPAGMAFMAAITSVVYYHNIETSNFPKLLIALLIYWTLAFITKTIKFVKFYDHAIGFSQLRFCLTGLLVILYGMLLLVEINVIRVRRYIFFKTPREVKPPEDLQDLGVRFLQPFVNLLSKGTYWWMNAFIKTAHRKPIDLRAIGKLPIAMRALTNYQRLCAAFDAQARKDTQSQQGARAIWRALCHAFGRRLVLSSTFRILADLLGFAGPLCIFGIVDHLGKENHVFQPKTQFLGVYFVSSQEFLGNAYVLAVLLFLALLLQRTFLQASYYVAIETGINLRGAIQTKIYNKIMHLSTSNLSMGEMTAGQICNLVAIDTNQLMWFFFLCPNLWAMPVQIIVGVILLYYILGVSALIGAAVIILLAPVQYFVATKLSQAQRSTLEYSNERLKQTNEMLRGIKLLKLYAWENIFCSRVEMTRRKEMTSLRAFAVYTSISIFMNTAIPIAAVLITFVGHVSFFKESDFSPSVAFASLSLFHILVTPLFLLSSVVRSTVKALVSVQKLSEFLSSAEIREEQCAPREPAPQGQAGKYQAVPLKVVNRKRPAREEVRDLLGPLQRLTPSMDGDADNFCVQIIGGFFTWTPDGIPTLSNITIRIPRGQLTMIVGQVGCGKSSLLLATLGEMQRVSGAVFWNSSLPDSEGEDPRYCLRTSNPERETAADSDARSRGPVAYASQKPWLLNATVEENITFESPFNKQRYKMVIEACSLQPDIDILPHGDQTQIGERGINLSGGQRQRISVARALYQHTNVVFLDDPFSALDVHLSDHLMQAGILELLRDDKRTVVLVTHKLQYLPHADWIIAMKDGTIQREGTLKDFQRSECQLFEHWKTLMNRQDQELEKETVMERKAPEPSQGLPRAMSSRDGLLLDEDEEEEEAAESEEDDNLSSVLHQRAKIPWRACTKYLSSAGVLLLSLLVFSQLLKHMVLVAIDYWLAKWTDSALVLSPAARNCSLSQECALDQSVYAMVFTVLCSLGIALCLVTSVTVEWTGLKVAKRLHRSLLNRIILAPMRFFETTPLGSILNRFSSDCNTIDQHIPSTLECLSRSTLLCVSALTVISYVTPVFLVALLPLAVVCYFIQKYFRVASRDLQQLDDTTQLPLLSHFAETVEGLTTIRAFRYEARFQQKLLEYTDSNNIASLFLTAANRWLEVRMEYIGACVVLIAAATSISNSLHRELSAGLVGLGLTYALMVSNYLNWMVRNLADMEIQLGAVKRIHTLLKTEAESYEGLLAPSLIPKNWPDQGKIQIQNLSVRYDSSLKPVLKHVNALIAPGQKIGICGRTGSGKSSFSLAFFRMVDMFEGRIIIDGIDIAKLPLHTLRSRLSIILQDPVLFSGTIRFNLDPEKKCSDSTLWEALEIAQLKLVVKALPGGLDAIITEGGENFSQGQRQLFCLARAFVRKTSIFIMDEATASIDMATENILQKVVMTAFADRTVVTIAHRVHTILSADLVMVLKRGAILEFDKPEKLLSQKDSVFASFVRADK", "T1 sequence (Q61743 whole entry partner)": "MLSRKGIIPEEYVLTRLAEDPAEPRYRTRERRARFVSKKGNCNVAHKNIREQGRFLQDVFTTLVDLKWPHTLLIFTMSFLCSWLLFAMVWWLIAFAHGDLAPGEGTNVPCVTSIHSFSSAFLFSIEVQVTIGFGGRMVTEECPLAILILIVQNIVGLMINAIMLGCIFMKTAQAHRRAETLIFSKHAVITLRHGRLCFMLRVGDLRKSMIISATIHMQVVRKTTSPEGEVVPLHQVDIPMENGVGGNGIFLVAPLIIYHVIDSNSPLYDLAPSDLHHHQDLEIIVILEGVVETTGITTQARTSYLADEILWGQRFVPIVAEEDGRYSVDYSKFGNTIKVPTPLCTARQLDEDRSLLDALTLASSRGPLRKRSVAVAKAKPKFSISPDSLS", "assay": "SU receptor binding experiment ([3H]-glibenclamide displacement on dispersed pancreatic islet cells)", "set-up": "species or system mice", "procedure": "Next, the pancreatic islets isolated from the mice were dispersed into single cells to prepare 1.7×10^5 cells/sample. A solution containing [^3H]-glibendamide; which was obtained by labeling glibenclamide (4-[2-(5-Chloro-2-methoxybenzoylammo)ethyl]-N-(cyclohexylcarbamoyl)benzenesulfon amide, serving as an SU agent) with ^3H, was added to these cells so that the final concentration of the [^3H]-glibenclamide was 1.85 pmol/L. Subsequently, a reagent containing the compound (7) was added (final concentration of the compound (7): 1×10^−4 to 1×10^−12 M), and incubation was performed at room temperature for 1 hour. The reaction was stopped by filtration, and the radioactivity was measured with a liquid scintillation analyzer.\nTherefore, the molecular probe expressed as the formula (7) might have a SUR1 binding site."}, "SUR1": {"target": "SUR1 (Homo sapiens, UniProt Q09428)", "sequence (Q09428 whole entry, species assumed)": "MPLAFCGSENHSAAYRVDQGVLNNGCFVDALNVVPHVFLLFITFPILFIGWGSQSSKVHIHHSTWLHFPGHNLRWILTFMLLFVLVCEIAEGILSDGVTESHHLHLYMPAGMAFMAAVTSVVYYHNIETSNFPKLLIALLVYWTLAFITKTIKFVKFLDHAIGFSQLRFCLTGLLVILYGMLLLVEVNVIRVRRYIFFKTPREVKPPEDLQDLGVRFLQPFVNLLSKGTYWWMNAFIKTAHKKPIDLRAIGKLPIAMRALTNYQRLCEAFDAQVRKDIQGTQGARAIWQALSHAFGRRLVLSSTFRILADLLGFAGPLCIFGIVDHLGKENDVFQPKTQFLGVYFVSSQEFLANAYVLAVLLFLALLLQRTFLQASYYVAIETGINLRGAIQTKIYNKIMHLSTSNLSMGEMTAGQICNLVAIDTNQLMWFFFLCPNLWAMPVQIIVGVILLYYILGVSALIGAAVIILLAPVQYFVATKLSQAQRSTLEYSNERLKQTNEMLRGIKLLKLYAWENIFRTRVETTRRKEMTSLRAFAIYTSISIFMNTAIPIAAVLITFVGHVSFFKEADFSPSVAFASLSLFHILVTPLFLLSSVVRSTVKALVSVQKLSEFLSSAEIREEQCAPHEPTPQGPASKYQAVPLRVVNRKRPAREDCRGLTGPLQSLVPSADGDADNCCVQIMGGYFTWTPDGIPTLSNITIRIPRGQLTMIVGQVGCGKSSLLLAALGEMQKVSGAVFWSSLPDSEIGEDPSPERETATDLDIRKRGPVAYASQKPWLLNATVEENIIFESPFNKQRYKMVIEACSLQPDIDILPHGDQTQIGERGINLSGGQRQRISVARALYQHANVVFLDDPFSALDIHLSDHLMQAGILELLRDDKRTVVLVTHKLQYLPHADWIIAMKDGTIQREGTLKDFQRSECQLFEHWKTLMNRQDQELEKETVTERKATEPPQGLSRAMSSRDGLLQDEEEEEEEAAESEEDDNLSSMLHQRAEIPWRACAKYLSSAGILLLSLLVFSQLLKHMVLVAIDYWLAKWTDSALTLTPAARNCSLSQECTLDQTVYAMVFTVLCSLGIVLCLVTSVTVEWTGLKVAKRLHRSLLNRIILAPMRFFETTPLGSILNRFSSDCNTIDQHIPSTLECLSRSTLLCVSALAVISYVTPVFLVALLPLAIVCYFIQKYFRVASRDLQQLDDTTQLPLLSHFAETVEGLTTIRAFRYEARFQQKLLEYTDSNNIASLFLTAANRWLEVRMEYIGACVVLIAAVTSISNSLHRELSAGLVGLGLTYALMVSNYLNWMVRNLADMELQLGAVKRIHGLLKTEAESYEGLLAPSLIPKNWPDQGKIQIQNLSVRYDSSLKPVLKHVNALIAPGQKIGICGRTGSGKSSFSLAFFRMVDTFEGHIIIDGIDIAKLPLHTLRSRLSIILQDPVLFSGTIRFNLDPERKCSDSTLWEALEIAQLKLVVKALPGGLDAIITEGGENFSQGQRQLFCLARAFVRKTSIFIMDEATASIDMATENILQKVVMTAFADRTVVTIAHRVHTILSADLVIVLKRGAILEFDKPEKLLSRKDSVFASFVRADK", "sequence (Q14654 whole entry partner, species assumed)": "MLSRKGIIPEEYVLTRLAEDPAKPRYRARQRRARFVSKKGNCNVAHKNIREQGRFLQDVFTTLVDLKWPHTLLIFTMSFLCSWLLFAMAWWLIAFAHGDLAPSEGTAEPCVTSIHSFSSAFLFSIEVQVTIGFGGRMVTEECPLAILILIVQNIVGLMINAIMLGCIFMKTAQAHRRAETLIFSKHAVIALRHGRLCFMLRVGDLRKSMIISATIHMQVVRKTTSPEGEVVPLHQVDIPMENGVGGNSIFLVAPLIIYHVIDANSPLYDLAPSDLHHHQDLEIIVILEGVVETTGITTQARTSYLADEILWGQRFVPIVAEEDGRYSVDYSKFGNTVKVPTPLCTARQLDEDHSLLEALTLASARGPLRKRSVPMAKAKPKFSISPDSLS", "details": "compared with nateglinide; cited from earlier work"}}}
{"smiles": "O=C(O)C(CC(=O)N1C[C@H]2CCCC[C@H]2C1)Cc1ccc(OCC[18F])cc1", "note": "(stereo partly shown) [compound (6)]", "values": [{"measurement": "PET imaging result (distinguishing the pancreas)", "setting": "pancreatic islets", "value": "the approximate position of the pancreas could be distinguished noninvasively"}]}
{"smiles": "O=C(O)[C@H](CC(=O)N1C[C@H]2CCCC[C@H]2C1)Cc1ccc(OCCF)cc1", "note": "[compound (7)]", "values": [{"measurement": "inhibition of the bond between the SU receptor and [3H]-glibenclamide", "setting": "SU receptor; compound 1×10^−4 to 1×10^−12 M, FIG. 2", "value": "inhibited the bond between the SU receptor and the [^3H]-glibenclamide in the concentration-dependent manner"}, {"measurement": "EC50", "setting": "SU receptor; inhibition of [3H]-glibenclamide (1.85 pmol/L) binding, mouse islet cells 1.7×10^5 cells/sample, room temperature, 1 hour", "value": 23.5, "unit": "nM"}]}
{"smiles": "O=C(O)[C@H](CC(=O)N1C[C@H]2CCCC[C@H]2C1)Cc1ccccc1", "note": "[mitiglinide, (+)-monocalcium bis [(2S, 3a, 7a-cis)-α-benzylhexahydro-γ-oxo-2-isoindolinebutyrate]dihydrate]", "values": [{"measurement": "selectivity for SUR1 in vitro relative to nateglinide", "setting": "SUR1", "value": "about 100 times"}]}
